According to patent US9663530B2, “5-oxa-2-azabicyclo[2.2.2]OCTAN-4-yl and 5-oxa-2-azabicyclo[2.2.1]heptan-4-yl derivatives” (Hoffmann-La Roche Inc., priority 2014, dated 2017):

Columns and labels:
[1] = target: mouse TAAR1 (Mus musculus (Mouse), UniProt Q923Y8); assay: Radioligand binding assay on mouse TAAR1; details: mouse TAAR1 (first value of the cell); membranes of HEK-293 cells stably expressing mouse TAAR1; read-out: Ki (μM) mouse/rat
Experimental: (§1) Construction of TAAR Expression Plasmids and Stably Transfected Cell Lines
(§2) For the construction of expression plasmids the coding sequences of human, rat and mouse TAAR 1 were amplified from genomic DNA essentially as described by Lindemann et al.. The Expand High Fidelity PCR System (Roche Diagnostics) was used with 1.5 mM Mg^2+ and purified PCR products were cloned into pCR2.1-TOPO cloning vector (Invitrogen) following the instructions of the manufacturer. PCR products were subcloned into the pIRESneo2 vector (BD Clontech, Palo Alto, Calif.), and expression vectors were sequence verified before introduction in cell lines.
(§3) HEK293 cells (ATCC # CRL-1573) were cultured essentially as described by Lindemann et al. (2005). For the generation of stably transfected cell lines HEK293 cells were transfected with the pIRESneo2 expression plasmids containing the TAAR coding sequences (described above) with Lipofectamine 2000 (Invitrogen) according to the instructions of the manufacturer, and 24 hrs post transfection the culture medium was supplemented with 1 mg/ml G418 (Sigma, Buchs, Switzerland). After a culture period of about 10 d clones were isolated, expanded and tested for responsiveness to trace amines (all compounds purchased from Sigma) with the cAMP Biotrak Enzyme immunoassay (EIA) System (Amersham) following the non-acetylation EIA procedure provided by the manufacturer.
Radioligand Binding Assay on Mouse TAAR1
(§4) Membrane Preparation and Radioligand Binding.
HEK-293 cells stably expressing mouse TAAR1 were maintained at 37° C. and 5% CO2 in DMEM high glucose medium, containing fetal calf serum (10%, heat inactivated for 30 min at 56° C.), penicillin/streptomycin (1%), and 375 μg/ml geneticin (Gibco). Cells were released from culture flasks using trypsin/EDTA, harvested, washed twice with ice-cold PBS (without Ca^2+and Mg^2+), pelleted at 1,000 rpm for 5 min at 4° C., frozen and stored at −80° C. Frozen pellets were suspended in 20 ml HEPES-NaOH (20 mM, pH 7.4) containing 10 mM EDTA and homogenized with a Polytron (PT 6000, Kinematica) at 14,000 rpm for 20 s. The homogenate was centrifuged at 48,000×g for 30 min at 4° C. Subsequently, the supernatant was removed and discarded, and the pellet resuspended in 20 ml HEPES-NaOH (20 mM, pH 7.4) containing 0.1 mM EDTA using the Polytron (20 s at 14,000 rpm). This procedure was repeated and the final pellet resuspended in HEPES-NaOH containing 0.1 mM EDTA and homogenized using the Polytron. Typically, aliquots of 2 ml membrane portions were stored at −80° C. With each new membrane batch the dissociation constant (Kd) was determined via a saturation curve. The TAAR1 radioligand ^3[H]-(S)-4-[(ethyl-phenyl-amino)-methyl]-4,5-dihydro-oxazol-2-ylamine (described in WO 2008/098857) was used at a concentration equal to the calculated Kd value, that was usually around 0.7 nM, resulting in the binding of approximately 0.5% of the radioligand and a specific binding representing approximately 70% of the total binding. Nonspecific binding was defined as the amount of ^3[H]-(S)-4-[(ethyl-phenyl-amino)-methyl]-4,5-dihydro-oxazol-2-ylamine bound in the presence of 10 μM unlabeled ligand. All compounds were tested at a broad range of concentrations ([…]) in duplicates. The test compounds (20 […]μl/well) were transferred into a 96 deep well plate (TreffLab), and 180 μl of HEPES-NaOH (20 mM, pH 7.4) containing MgCl2 (10 mM) and CaCl2 (2 mM) (binding buffer), 300 μl of the radioligand ^3[H]-(S)-4-[(ethyl-phenyl-amino)-methyl]-4,5-dihydro-oxazol-2-ylamine at a concentration of 3.3×Kd in nM and 500 μl of the membranes (resuspended at […]) added. The 96 deep well plates were incubated for 1 hr at 4° C. Incubations were terminated by rapid filtration through Unifilter-96 plates (Packard Instrument Company) and glass filters GF/C (Perkin Elmer) presoaked for 1 hr in polyethylenimine (0.3%) and washed 3 times with 1 ml of cold binding buffer. […]

[2] = target: rat TAAR1 (Rattus norvegicus (Rat), UniProt Q923Y9); assay: Radioligand binding assay on rat TAAR1; details: rat TAAR1 (second value of the cell); membranes of HEK-293 cells stably expressing rat TAAR1; read-out: Ki (μM) mouse/rat
Chain of rat TAAR1 (Q923Y9 whole entry): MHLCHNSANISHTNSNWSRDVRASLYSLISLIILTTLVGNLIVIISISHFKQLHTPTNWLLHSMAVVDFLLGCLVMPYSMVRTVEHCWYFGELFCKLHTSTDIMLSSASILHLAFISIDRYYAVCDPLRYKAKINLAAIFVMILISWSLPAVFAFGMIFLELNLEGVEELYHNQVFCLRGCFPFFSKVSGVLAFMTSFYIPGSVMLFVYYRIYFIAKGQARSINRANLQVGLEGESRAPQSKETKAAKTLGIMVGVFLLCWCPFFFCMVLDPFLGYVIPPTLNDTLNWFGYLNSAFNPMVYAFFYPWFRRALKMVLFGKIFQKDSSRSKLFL
Experimental: as §1, §2, §3
Radioligand Binding Assay on Rat TAAR1
as §4
HEK-293 cells stably expressing rat TAAR1 were maintained at 37° C. and 5% CO2 in DMEM high glucose medium, containing fetal calf serum (10%, heat inactivated for 30 min at 56° C.), penicillin/streptomycin (1%), and 375 μg/ml geneticin (Gibco). Cells were released from culture flasks using trypsin/EDTA, harvested, washed twice with ice-cold PBS (without Ca^2+ and Mg^2+), pelleted at 1,000 rpm for 5 min at 4° C., frozen and stored at −80° C. Frozen pellets were suspended in 20 ml HEPES-NaOH (20 mM, pH 7.4) containing 10 mM EDTA and homogenized with a Polytron (PT 6000, Kinematica) at 14,000 rpm for 20 s. The homogenate was centrifuged at 48,000×g for 30 min at 4° C. Subsequently, the supernatant was removed and discarded, and the pellet resuspended in 20 ml HEPES-NaOH (20 mM, pH 7.4) containing 0.1 mM EDTA using the Polytron (20 s at 14,000 rpm). This procedure was repeated and the final pellet resuspended in HEPES-NaOH containing 0.1 mM EDTA and homogenized using the Polytron. Typically, aliquots of 2 ml membrane portions were stored at −80° C. With each new membrane batch the dissociation constant (Kd) was determined via a saturation curve. […] Nonspecific binding was defined as the amount of ^3[H]-(S)-4-[(ethyl-phenyl-amino)-methyl]-4,5-dihydro-oxazol-2-ylamine bound in the presence of 10 μM unlabeled ligand. All compounds were tested at a broad range of concentrations ([…]) in duplicates. The test compounds (20 […]μl/well) were transferred into a 96 deep well plate (TreffLab), and 180 μl of HEPES-NaOH (20 mM, pH 7.4) containing MgCl2 (10 mM) and CaCl2 (2 mM) (binding buffer), 300 μl of the radioligand ^3[H]-(S)-4-[(ethyl-phenyl-amino)-methyl]-4,5-dihydro-oxazol-2-ylamine at a concentration of 3.3×Kd in nM and 500 μl of the membranes (resuspended at 50 μg protein per ml) added. The 96 deep well plates were incubated for 1 hr at 4° C. Incubations were terminated by rapid filtration through Unifilter-96 plates (Packard Instrument Company) and glass filters GF/C (Perkin Elmer) presoaked for 1 hr in polyethylenimine (0.3%) and washed 3 times with 1 ml of cold binding buffer. After addition of 45 μl of Microscint 40 (PerkinElmer) the Unifilter-96 plate was sealed and after 1 hr the ratioactivity counted using a TopCount Microplate Scintillation Counter (Packard Instrument Company).

Chain of mouse TAAR1 (Q923Y8 whole entry): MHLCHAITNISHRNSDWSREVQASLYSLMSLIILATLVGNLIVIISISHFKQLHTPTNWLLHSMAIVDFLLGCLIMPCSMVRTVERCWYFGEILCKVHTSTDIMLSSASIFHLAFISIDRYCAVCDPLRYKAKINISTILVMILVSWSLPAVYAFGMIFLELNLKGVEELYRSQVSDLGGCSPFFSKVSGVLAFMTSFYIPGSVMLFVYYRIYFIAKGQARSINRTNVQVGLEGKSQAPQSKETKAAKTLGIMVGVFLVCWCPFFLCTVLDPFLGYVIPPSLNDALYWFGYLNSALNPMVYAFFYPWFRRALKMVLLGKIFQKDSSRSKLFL

| Ki [1] | Ki [2] | Compound |
| --- | --- | --- |
| 0.846 µM | 0.0442 µM | O=C(Nc1ccc(C[C@]23CN[C@H](CO2)C3)cc1)Nc1ccc(C(F)(F)F)cc1 [Example 8, 1-[4-[[(1S,4S)-5-Oxa-2-azabicyclo[2.2.1]heptan-4-yl]methyl]phenyl]-3-[4-(trifluoromethyl)phenyl]urea] |
| 1.63 µM | 0.53 µM | O=C(Nc1ccc(C[C@]23CN[C@H](CO2)C3)cc1)Nc1ccccc1Cl [Example 9, 1-(2-Chlorophenyl)-3-[4-[[(1S,4S)-5-oxa-2-azabicyclo[2.2.1]heptan-4-yl]methyl]phenyl]urea] |
| 0.365 µM | 0.0209 µM | O=C(Nc1ccc(C[C@]23CN[C@H](CO2)C3)cc1)Nc1cccc(C(F)(F)F)c1 [Example 10, 1-[4-[[(1S,4S)-5-Oxa-2-azabicyclo[2.2.1]heptan-4-yl]methyl]phenyl]-3-[3-(trifluoromethyl)phenyl]urea] |
| 0.0853 µM | 0.0505 µM | O=C(Nc1ccc(C[C@]23CN[C@H](CO2)C3)cc1)c1ccc(Cl)cc1 [Example 15, 4-Chloro-N-[4-[[(1S,4S)-5-oxa-2-azabicyclo[2.2.1]heptan-4-yl]methyl]phenyl]benzamide] |
| 0.476 µM | 0.277 µM | CCCc1n[nH]c(C(=O)Nc2ccc(C[C@]34CN[C@H](CO3)C4)cc2)c1Cl [Example 16, 4-Chloro-N-[4-[[(1 S,4S)-5-oxa-2-azabicyclo[2.2.1]heptan-4-yl]methyl]phenyl]-3-propyl-1H-pyrazole-5-carboxamide] |
| 0.112 µM | 0.229 µM | O=C(Nc1ccc(C[C@]23CN[C@H](CO2)C3)cc1)c1cccc(Cl)c1 [Example 17, 3-Chloro-N-[4-[[(1S,4S)-5-oxa-2-azabicyclo[2.2.1]heptan-4-yl]methyl]phenyl]benzamide] |
| 0.238 µM | 0.354 µM | O=C(Nc1ccc(C[C@]23CN[C@H](CO2)C3)cc1)c1ccnc(C(F)(F)F)c1 [Example 18, N-[4-[[(1S,4S)-5-Oxa-2-azabicyclo[2.2.1]heptan-4-yl]methyl]phenyl]-2-(trifluoromethyl)pyridine-4-carboxamide] |
| 0.334 µM | 0.063 µM | CCOc1ccc(C(=O)Nc2ccc(C[C@]34CN[C@H](CO3)C4)cc2)cc1 [Example 19, 4-Ethoxy-N-[4-[[(1 S,4S)-5-oxa-2-azabicyclo[2.2.1]heptan-4-yl]methyl]phenyl]benzamide] |
| 0.003 µM | 0.0626 µM | O=C(Nc1ccc(C[C@@]23CN[C@@H](CO2)C3)cc1)c1ccc(Cl)cc1 [Example 21, 4-Chloro-N-[4-[[(1R,4R)-5-oxa-2-azabicyclo[2.2.1]heptan-4-yl]methyl]phenyl]benzamide] |
| 0.0126 µM | 0.0237 µM | O=C(Nc1ccc(C[C@@]23CN[C@@H](CO2)C3)cc1)Nc1ccc(C(F)(F)F)cc1 [Example 22, 1-[4-[[(1R,4R)-5-Oxa-2-azabicyclo[2.2.1]heptan-4-yl]methyl]phenyl]-3-[4-(trifluoromethyl)phenyl]urea] |
| 0.0137 µM | 0.0375 µM | O=C(Nc1ccc(Cl)cc1)Nc1ccc(C[C@@]23CN[C@@H](CO2)C3)cc1 [Example 23, 1-(4-Chlorophenyl)-3-[4-[[(1R,4R)-5-oxa-2-azabicyclo[2.2.1]heptan-4-yl]methyl]phenyl]urea] |
| 0.0086 µM | 0.0614 µM | O=C(Nc1ccc(C[C@@]23CN[C@@H](CO2)C3)cc1)Nc1cccc(Cl)c1 [Example 24, 1-(3-Chlorophenyl)-3-[4-[[(1R,4R)-5-oxa-2-azabicyclo[2.2.1]heptan-4-yl]methyl]phenyl]urea] |
| 0.168 µM | 0.0175 µM | O=C(Nc1ccc(C[C@]23CN[C@H](CO2)C3)cc1)c1ccc(OCC2CC2)cc1 [Example 25, 4-(Cyclopropylmethoxy)-N-[4-[[(1S,4S)-5-oxa-2-azabicyclo[2.2.1]heptan-4-yl]methyl]phenyl]benzamide] |
| 1.14 µM | 0.441 µM | CCOc1ccc(C(=O)Nc2ccc(C[C@]34CN[C@H](CO3)C4)cc2)cn1 [Example 26, 6-Ethoxy-N-[4-[[(1S,4S)-5-oxa-2-azabicyclo[2.2.1]heptan-4-yl]methyl]phenyl]pyridine-3-carboxamide] |
| 0.0552 µM | 0.013 µM | O=C(Nc1ccc(C[C@]23CN[C@H](CO2)C3)cc1)c1ccc(OCC(F)(F)F)nc1 [Example 27, N-[4-[[(1 S,4S)-5-Oxa-2-azabicyclo[2.2.1]heptan-4-yl]methyl]phenyl]-6-(2,2,2-trifluoroethoxy)pyridine-3-carboxamide] |
| 0.36 µM | 1.58 µM | O=C(Nc1ccc(C[C@]23CN[C@H](CO2)C3)cc1)c1cnc(C2CC2)nc1 [Example 28, 2-Cyclopropyl-N-[4-[[(1S,4S)-5-oxa-2-azabicyclo[2.2.1]heptan-4-yl]methyl]phenyl]pyrimidine-5-carboxamide] |
| 0.476 µM | 0.633 µM | O=C(Nc1ccc(C[C@]23CN[C@H](CO2)C3)cc1)c1[nH]nc(C2CC2)c1Cl [Example 29, 4-Chloro-3-cyclopropyl-N-[4-[[(1 S,4S)-5-oxa-2-azabicyclo[2.2.1]heptan-4-yl]methyl]phenyl]-1H-pyrazole-5-carboxamide] |

| Compound | Ki [1] | Ki [2] |
| --- | --- | --- |
| Clc1ccc(Nc2ccc([C@@]34CN[C@@H](CO3)C4)cc2)nc1 [Example 20, 5-Chloro-N-[4-[(1R,4S)-5-oxa-2-azabicyclo[2.2.1]heptan-4-yl]phenyl]pyridin-2-amine] | 0.0062 µM | 1.78 µM |
